{"source": "patent US20260125374A1", "about": "“PI3K-ALPHA INHIBITORS AND METHODS OF MAKING AND USING THE SAME” (Relay Therapeutics, Inc., priority 2021, published 2026)", "key": {"[1]": {"test": "Salt screening (XRPD, chiral purity of hits)", "type": "physicochemical", "procedure": "Based on the pKa of I-1 free form, 23 counter ions were selected as salt/cocrystal forming agents. Methanol, acetone and isopropyl acetate were used as screening solvents. 1.0 equivalent of selected counter ions/coformers was applied for salt screening. Slurry equilibration, slow evaporation and anti-solvent addition were used as crystallization methods. In total, about 70 screening experiments were conducted.\nAbout 50 mg of I-1 Form A were added to a suitable amount of solvent and 1.0 equivalent of counter ions were added under stirring at 50° C. for 2 hours and then at 25° C. for at least 12 hours. MeOH, acetone and IPAc were used as screening solvents.\nObtained suspensions were taken out and centrifuged. Solids obtained were analyzed by XRPD and salt screening results were summarized in Table 5.1, Table 5.2, and Table 5.3."}, "[2]": {"details": "cited from earlier work"}, "[3]": {"test": "Polymorph screening (equilibration, anti-solvent, slow evaporation, slow cooling, temperature cycling, heating-cooling; XRPD and SFC)", "type": "physicochemical", "details": "for ee %(SFC): 6 days", "procedure": "This polymorph screening program of compound I-1 free form was performed with two batches of the pure enantiomer. Both batches are crystalline and is assigned as Form A. The polymorphic behaviors of the enantiomer were investigated by equilibration at 25° C. and 50° C., equilibration under a temperature cycle, crystallization from hot saturated solutions by slow cooling, slow evaporation, precipitation by addition of anti-solvent, and DSC heating-cooling cycle experiments. Relative stability of identified polymorphs was investigated by competitive slurry experiments.\n(§1) About 50 mg of I-1 Form A was weighed into a 2 mL glass vial and equilibrated in suitable amount of solvents (pretreated by molecular sieves) at 25° C. for 2 weeks with a stirring plate and with protection from light. Obtained suspensions were filtered with 0.45 μm nylon membrane and the solid parts (wet cake) were investigated by XRPD. When differences were observed, additional investigations were performed (e.g. DSC, TGA, ^1H-NMR, SFC).\nas §1, with “into” for “into a”, “vials” for “vial”, “50°” for “25°”, “10 days” for “2 weeks”, “investigation was” for “investigations were”\nI-1 Form A was dissolved in a good solvent. […] The solvents used were pretreated by molecular sieve. Precipitates were collected by filtration. The solid part (wet cake) was investigated by XRPD. […] When differences were observed, additional investigations were performed (e.g. DSC, TGA, ^1H-NMR, SFC).\nBased on approximate solubility results, I-1 Form A was dissolved in suitable amount of solvents (pretreated by molecular sieves). Obtained solutions were filtered by 0.45 μm nylon filter. […] Solid residues were examined for their polymorphic form. When differences were observed, additional investigations were performed (e.g. DSC, TGA, ^1H-NMR, SFC).\nApproximate 50 mg of batch I-1 Form A were dissolved in the minimal amount of selected solvents (without pretreatment by molecular sieves) at 50° C. Obtained solutions were filtered by 0.45 μm nylon filter. […] Precipitates were collected by filtration. The solid parts (wet cake) were investigated by XRPD. When differences were observed, additional investigations were performed (e.g. DSC, TGA, ^1H-NMR, SFC). When no precipitation was obtained or only a few solids were obtained, the solutions were placed at 5° C. for crystallization.\nAbout 50 mg of I-1 Form A was equilibrated in different solvents (pretreated by molecular sieves) under a temperature cycle between 5° C. to 50° C. at a heating/cooling rate of 0.2° C./min for 10 cycles and with protection from light. After 10 cycles, precipitates were collected at 5° C. by filtration. The solid parts (wet cake) were investigated by XRPD. When differences were observed, additional investigations were performed (e.g. DSC, TGA, 1H-NMR, SFC).\nPolymorphic behavior of I-1 Form A was investigated by two different heating-cooling cycles of DSC. Cycle 1:30° C. to 280° C. at 10° C./min; 280° C. to −20° C. at 20° C./min; reheat to 300° C. at 10° C./min. Cycle 2:30° C. to 280° C. at 10° C./min; 280° C. to-20° C. at 2° C./min; reheat to 300° C. at 10° C./min."}, "[4]": {"test": "Light and glassware influence on racemization of II-1", "type": "physicochemical", "procedure": "The effect of glassware surface pH and light on II-1 racemization was evaluated."}, "[5]": {"details": "crystalline hits of salt screening, listed as III-6 Form A"}, "[6]": {"details": "equilibration of II-1 in 1,4-dioxane, 50° C."}, "[7]": {"details": "crystalline hits of salt screening, listed as III-2 Form A"}, "[8]": {"details": "crystalline hits of salt screening, listed as III-2 Form B"}, "[9]": {"details": "crystalline hit dried at 50° C. for 21 h"}, "[10]": {"details": "crystalline hits of salt screening, listed as I-5 Form A"}, "[11]": {"details": "crystalline hits of salt screening, listed as I-5 Form B"}, "[12]": {"details": "crystalline hits of salt screening, listed as I-2 Form A"}}, "note": "Marks after values point to notes of the source that are not given here.", "data": [{"smiles": "N#Cc1c(-c2cc(NC(=O)c3cc(F)cc(C(F)(F)F)c3)c3c(c2)C(=O)NC3c2cc(F)ccc2Cl)ccc2ncnn12", "note": "(stereo not shown) [III-6]", "values": [{"measurement": "Salt screening result (slurry crystallization)", "setting": "[1]; 1.0 equiv. naphthalene-2-sulfonic acid, Acetone", "result": "+ (Salt hits)"}, {"measurement": "Chiral purity (by HPLC)", "setting": "[1]; [5]", "result": 43.2, "unit": "%"}, {"measurement": "Crystallinity (By XRPD)", "setting": "[1]; [5]", "result": "low"}, {"measurement": "Chiral purity of salt screening solid", "setting": "[1]; slurry, 1.0 equiv. naphthalene-2-sulfonic acid, Acetone", "result": "Chiral purity: 43.2%"}]}, {"smiles": "O=S(=O)(O)c1ccc2ccccc2c1", "note": "[Naphthalene-2-sulfonic acid]", "values": [{"measurement": "pKa(s)", "setting": "[2]", "result": 0.17}]}, {"smiles": "N#Cc1c(-c2cc(NC(=O)c3cc(F)cc(C(F)(F)F)c3)c3c(c2)C(=O)N[C@@H]3c2cc(F)ccc2Cl)ccc2ncnn12", "note": "[II-1, (S)-N-(3-(2-chloro-5-fluorophenyl)-6-(5-cyano-[1,2,4]triazolo[1,5-a]pyridin-6-yl)-1-oxoisoindolin-4-yl)-3-fluoro-5-(trifluoromethyl)benzamide]", "values": [{"measurement": "XRPD (6 days)", "setting": "[3]; [6]", "result": "II-1 Form B"}, {"measurement": "ee %(SFC)", "setting": "[3]; [6]", "result": "ee %(SFC): −99.48%*"}, {"measurement": "ee %(SFC)", "setting": "[3]; equilibration of II-1 in ACN/water(80:20, v/v), 50° C.", "result": "ee %(SFC): −99.24%*"}, {"measurement": "ee %(SFC)", "setting": "[3]; equilibration of II-1 in EtOH/water(50:50, v/v), 50° C.", "result": "ee %(SFC): −99.78%*"}, {"measurement": "ee %(SFC)", "setting": "[3]; equilibration of II-1 in Methanol, 50° C.", "result": "ee %(SFC): −99.66%*"}, {"measurement": "XRPD (6 days)", "setting": "[3]; equilibration of II-1 in THF/water(85:15, v/v) a.w. 0.9, 25° C.", "result": "II-1 Form C (include the"}, {"measurement": "ee %(SFC)", "setting": "[3]; equilibration of II-1 in THF/water(85:15, v/v), 25° C.", "result": "ee %(SFC): −99.34%*"}, {"measurement": "racemization in solution", "setting": "[4]; basic glassware, promoted by light", "result": "Noticeable racemization"}, {"measurement": "racemization in solution", "setting": "[4]; neutral and acidic glassware, absence and presence of light, up to 13 days", "result": "no significant racemization"}]}, {"smiles": "N#Cc1c(-c2cc(NC(=O)c3cc(F)cc(C(F)(F)F)c3)c3c(c2)C(=O)NC3c2cc(F)ccc2Cl)ccc2ncnn12", "note": "(stereo not shown) [III-2]", "values": [{"measurement": "Salt screening result (slurry crystallization)", "setting": "[1]; 1.0 equiv. HCl, ACN (second block of table)", "result": "+ (III-2 Form B) (Salt hits)"}, {"measurement": "Salt screening result (slurry crystallization)", "setting": "[1]; 1.0 equiv. HCl, Acetone", "result": "+ (III-2 Form A) (Salt hits)"}, {"measurement": "Salt screening result (slurry crystallization)", "setting": "[1]; 1.0 equiv. HCl, Acetone (second block of table)", "result": "+ (III-2 Form A) (Salt hits)"}, {"measurement": "Chiral purity (by HPLC)", "setting": "[1]; [7]", "result": 30.8, "unit": "%"}, {"measurement": "Crystallinity (By XRPD)", "setting": "[1]; [7]", "result": "Medium"}, {"measurement": "Chiral purity (by HPLC)", "setting": "[1]; [8]", "result": 20.3, "unit": "%"}, {"measurement": "Crystallinity (By XRPD)", "setting": "[1]; [8]", "result": "Low"}, {"measurement": "Chiral purity of salt screening solid", "setting": "[1]; slurry, 1.0 equiv. HCl, ACN (second block of table)", "result": "Chiral purity: 20.2%"}, {"measurement": "Chiral purity of salt screening solid", "setting": "[1]; slurry, 1.0 equiv. HCl, Acetone", "result": "Chiral purity: 30.8%"}, {"measurement": "Chiral purity of salt screening solid", "setting": "[1]; slurry, 1.0 equiv. HCl, Acetone (second block of table)", "result": "Chiral purity: 45.4%"}]}, {"smiles": "N#Cc1c(-c2cc(NC(=O)c3cc(F)cc(C(F)(F)F)c3)c3c(c2)C(=O)N[C@H]3c2cc(F)ccc2Cl)ccc2ncnn12", "note": "[Compound I-5]", "values": [{"measurement": "Salt screening result (anti-solvent)", "setting": "[1]; 1.0 equiv. naphthalene-1,5-disulfonic acid, Acetone/MTBE", "result": "+ (I-5 Form B) (Salt hits)"}, {"measurement": "Chiral purity of salt screening solid", "setting": "[1]; anti-solvent, 1.0 equiv. naphthalene-1,5-disulfonic acid, Acetone/MTBE", "result": "Chiral purity: 88.3%"}, {"measurement": "Chiral purity (by HPLC)", "setting": "[1]; [9]", "result": "C. for 21 h: 100%"}, {"measurement": "Crystallinity (By XRPD)", "setting": "[1]; [9]", "result": "low crystallinity"}, {"measurement": "Chiral purity (by HPLC)", "setting": "[1]; [10]", "result": 100, "unit": "% dried at 50°"}, {"measurement": "Crystallinity (By XRPD)", "setting": "[1]; [10]", "result": "Medium crystallinity"}, {"measurement": "Chiral purity (by HPLC)", "setting": "[1]; [11]", "result": 88.3, "unit": "%"}, {"measurement": "Crystallinity (By XRPD)", "setting": "[1]; [11]", "result": "Medium"}]}, {"smiles": "N#Cc1c(-c2cc(NC(=O)c3cc(F)cc(C(F)(F)F)c3)c3c(c2)C(=O)N[C@H]3c2cc(F)ccc2Cl)ccc2ncnn12", "note": "[Compound I-2]", "values": [{"measurement": "Salt screening result (slurry crystallization)", "setting": "[1]; 1.0 equiv. HCl, Isopropyl acetate", "result": "+ (Salt hits)"}, {"measurement": "Chiral purity (by HPLC)", "setting": "[1]; [12]", "result": 89.7, "unit": "%"}, {"measurement": "Crystallinity (By XRPD)", "setting": "[1]; [12]", "result": "Low"}, {"measurement": "Chiral purity of salt screening solid", "setting": "[1]; slurry, 1.0 equiv. HCl, Isopropyl acetate", "result": "Chiral purity: 89.7%"}]}, {"smiles": "O=C(O)CC(O)(CC(=O)O)C(=O)O", "note": "[Citric acid]", "values": [{"measurement": "pKa(s)", "setting": "[2]", "result": "3.12, 4.76, 6.39"}]}]}
